According to US20230085307A1, “PYRIDAZINONE COMPOUND AND HERBICIDE” (NISSAN CHEMICAL CORPORATION, priority 2019, published 2023):

Tests used:
barnyard grass [1] = assay: Test Example 3: herbicidal effect by foliage application, Wagner pot (Table 18, symbol H); assay type: in vivo, barnyard grass (Echinochloa crus-galli); settings: 320 g/ha
How it was run: (§1)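 Plants were sown in alluvial soil held under 0.1–0.5 cm standing water and grown 14 days in a greenhouse at 25–30 °C. An emulsifiable formulation, water-diluted to the set dose, was then sprayed onto the foliage, and effects were scored three weeks later using previously defined criteria.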

Chinese sprangletop = assay: Test Example 3: herbicidal effect by foliage application, Wagner pot (Table 18, symbol D); assay type: in vivo, chinese sprangletop (Leptochloa chinensis); settings: 320 g/ha
How it was run: as §1

rice flat sedge = assay: Test Example 3: herbicidal effect by foliage application, Wagner pot (Table 18, symbol E); assay type: in vivo, rice flat sedge (Cyperus iria); settings: 320 g/ha
How it was run: as §1

southern crabgrass [2] = assay: Test Example 4: herbicidal effect by soil treatment (Table 19, symbol F); assay type: in vivo, southern crabgrass (Digitaria ciliaris); settings: AAH 320 g/ha
How it was run: (§2)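 Applied as a water-diluted emulsion, the compound was sprayed onto soil covering newly sown seeds. Evaluation came three weeks after application, in a greenhouse held at 25° C. to 30° C.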

green foxtail [3] = assay: Test Example 4: herbicidal effect by soil treatment (Table 19, symbol G); assay type: in vivo, green foxtail (Setaria viridis); settings: AAH 320 g/ha
How it was run: as §2

barnyard grass [4] = assay: Test Example 4: herbicidal effect by soil treatment (Table 19, symbol H); assay type: in vivo, barnyard grass (Echinochloa crus-galli); settings: AAH 320 g/ha
How it was run: as §2

wild oat [5] = assay: Test Example 4: herbicidal effect by soil treatment (Table 19, symbol I); assay type: in vivo, wild oat (Avena fatua); settings: AAH 320 g/ha
How it was run: as §2

blackgrass [6] = assay: Test Example 4: herbicidal effect by soil treatment (Table 19, symbol J); assay type: in vivo, blackgrass (Alopecurus myosuroides); settings: AAH 320 g/ha
How it was run: as §2

Italian ryegrass [7] = assay: Test Example 4: herbicidal effect by soil treatment (Table 19, symbol K); assay type: in vivo, Italian ryegrass (Lolium multiflorum); settings: AAH 320 g/ha
How it was run: as §2

windgrass [8] = assay: Test Example 4: herbicidal effect by soil treatment (Table 19, symbol L); assay type: in vivo, windgrass (Apera spica-venti); settings: AAH 320 g/ha
How it was run: as §2

velvetleaf [9] = assay: Test Example 4: herbicidal effect by soil treatment (Table 19, symbol M); assay type: in vivo, velvetleaf (Abutilon theophrasti); settings: AAH 320 g/ha
How it was run: as §2

redroot pigweed [10] = assay: Test Example 4: herbicidal effect by soil treatment (Table 19, symbol N); assay type: in vivo, redroot pigweed (Amaranthus retroflexus); settings: AAH 320 g/ha
How it was run: as §2

lambsquarters [11] = assay: Test Example 4: herbicidal effect by soil treatment (Table 19, symbol O); assay type: in vivo, lambsquarters (Chenopodium album); settings: AAH 320 g/ha
How it was run: as §2

chickweed [12] = assay: Test Example 4: herbicidal effect by soil treatment (Table 19, symbol P); assay type: in vivo, common chickweed (Stellaria media); settings: AAH 320 g/ha
How it was run: as §2

persian speedwell [13] = assay: Test Example 4: herbicidal effect by soil treatment (Table 19, symbol R); assay type: in vivo, Persian speedwell (Veronica persica); settings: AAH 320 g/ha
How it was run: as §2

southern crabgrass [14] = assay: Test Example 5: herbicidal effect by foliage application, plastic box (Table 20, symbol F); assay type: in vivo, southern crabgrass (Digitaria ciliaris); settings: foliage application, AAH 320 g/ha, three weeks after application
How it was run: (§3)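 Sow seeds spot-wise in sterilized diluvial soil; cover with ~1.5 cm soil. Grow 14 days in greenhouse, 25° C. to 30° C. Spray foliage with emulsion diluted to predetermined amount. Rate effect after 3 weeks.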

green foxtail [15] = assay: Test Example 5: herbicidal effect by foliage application, plastic box (Table 20, symbol G); assay type: in vivo, green foxtail (Setaria viridis); settings: foliage application, AAH 320 g/ha, three weeks after application
How it was run: as §3

barnyard grass [16] = assay: Test Example 5: herbicidal effect by foliage application, plastic box (Table 20, symbol H); assay type: in vivo, barnyard grass (Echinochloa crus-galli); settings: foliage application, AAH 320 g/ha, three weeks after application
How it was run: as §3

wild oat [17] = assay: Test Example 5: herbicidal effect by foliage application, plastic box (Table 20, symbol I); assay type: in vivo, wild oat (Avena fatua); settings: foliage application, AAH 320 g/ha, three weeks after application
How it was run: as §3

blackgrass [18] = assay: Test Example 5: herbicidal effect by foliage application, plastic box (Table 20, symbol J); assay type: in vivo, blackgrass (Alopecurus myosuroides); settings: foliage application, AAH 320 g/ha, three weeks after application
How it was run: as §3

Italian ryegrass [19] = assay: Test Example 5: herbicidal effect by foliage application, plastic box (Table 20, symbol K); assay type: in vivo, Italian ryegrass (Lolium multiflorum); settings: foliage application, AAH 320 g/ha, three weeks after application
How it was run: as §3

windgrass [20] = assay: Test Example 5: herbicidal effect by foliage application, plastic box (Table 20, symbol L); assay type: in vivo, windgrass (Apera spica-venti); settings: foliage application, AAH 320 g/ha, three weeks after application
How it was run: as §3

velvetleaf [21] = assay: Test Example 5: herbicidal effect by foliage application, plastic box (Table 20, symbol M); assay type: in vivo, velvetleaf (Abutilon theophrasti); settings: foliage application, AAH 320 g/ha, three weeks after application
How it was run: as §3

redroot pigweed [22] = assay: Test Example 5: herbicidal effect by foliage application, plastic box (Table 20, symbol N); assay type: in vivo, redroot pigweed (Amaranthus retroflexus); settings: foliage application, AAH 320 g/ha, three weeks after application
How it was run: as §3

lambsquarters [23] = assay: Test Example 5: herbicidal effect by foliage application, plastic box (Table 20, symbol O); assay type: in vivo, lambsquarters (Chenopodium album); settings: foliage application, AAH 320 g/ha, three weeks after application
How it was run: as §3

chickweed [24] = assay: Test Example 5: herbicidal effect by foliage application, plastic box (Table 20, symbol P); assay type: in vivo, common chickweed (Stellaria media); settings: foliage application, AAH 320 g/ha, three weeks after application
How it was run: as §3

persian speedwell [25] = assay: Test Example 5: herbicidal effect by foliage application, plastic box (Table 20, symbol R); assay type: in vivo, Persian speedwell (Veronica persica); settings: foliage application, AAH 320 g/ha, three weeks after application
How it was run: as §3

CCCC(=O)Oc1c(OC)nn(C)c(=O)c1-c1c(-c2cc(Cl)ccc2OC)sc2ccccc12 [1-179]
herbicidal effect on H (barnyard grass), rating 0-5 (barnyard grass [1]): 4 (Herbicidal rate of 70% or more and less than 90%)
herbicidal effect on D (Chinese sprangletop), rating 0-5 (Chinese sprangletop): 0 (Herbicidal rate of 5% or less (almost no effect))
herbicidal effect on E (rice flat sedge), rating 0-5 (rice flat sedge): 3 (Herbicidal rate of 40% or more and less than 70%)
F: southern crabgrass, herbicidal effect rating (southern crabgrass [2]): 0 (Herbicidal rate of 5% or less (almost no effect))
G: green foxtail, herbicidal effect rating (green foxtail [3]): 0 (Herbicidal rate of 5% or less (almost no effect))
H: barnyard grass, herbicidal effect rating (barnyard grass [4]): 0 (Herbicidal rate of 5% or less (almost no effect))
I: wild oat, herbicidal effect rating (wild oat [5]): 0 (Herbicidal rate of 5% or less (almost no effect))
J: blackgrass, herbicidal effect rating (blackgrass [6]): 0 (Herbicidal rate of 5% or less (almost no effect))
K: Italian ryegrass, herbicidal effect rating (Italian ryegrass [7]): 0 (Herbicidal rate of 5% or less (almost no effect))
L: windgrass, herbicidal effect rating (windgrass [8]): 0 (Herbicidal rate of 5% or less (almost no effect))
M: velvetleaf, herbicidal effect rating (velvetleaf [9]): 0 (Herbicidal rate of 5% or less (almost no effect))
N: redroot pigweed, herbicidal effect rating (redroot pigweed [10]): 3 (Herbicidal rate of 40% or more and less than 70%)
O: lambsquarters, herbicidal effect rating (lambsquarters [11]): 0 (Herbicidal rate of 5% or less (almost no effect))
P: chickweed, herbicidal effect rating (chickweed [12]): 4 (Herbicidal rate of 70% or more and less than 90%)
R: persian speedwell, herbicidal effect rating (persian speedwell [13]): 4 (Herbicidal rate of 70% or more and less than 90%)
F: southern crabgrass, herbicidal effect (southern crabgrass [14]): 3 (Herbicidal rate of 40% or more and less than 70%)
G: green foxtail, herbicidal effect (green foxtail [15]): 3 (Herbicidal rate of 40% or more and less than 70%)
H: barnyard grass, herbicidal effect (barnyard grass [16]): 3 (Herbicidal rate of 40% or more and less than 70%)
I: wild oat, herbicidal effect (wild oat [17]): 3 (Herbicidal rate of 40% or more and less than 70%)
J: blackgrass, herbicidal effect (blackgrass [18]): 0 (Herbicidal rate of 5% or less (almost no effect))
K: Italian ryegrass, herbicidal effect (Italian ryegrass [19]): 0 (Herbicidal rate of 5% or less (almost no effect))
L: windgrass, herbicidal effect (windgrass [20]): 1 (Herbicidal rate of 5% or more and less than 20%)
M: velvetleaf, herbicidal effect (velvetleaf [21]): 2 (Herbicidal rate of 20% or more and less than 40%)
N: redroot pigweed, herbicidal effect (redroot pigweed [22]): 4 (Herbicidal rate of 70% or more and less than 90%)
O: lambsquarters, herbicidal effect (lambsquarters [23]): 3 (Herbicidal rate of 40% or more and less than 70%)
P: chickweed, herbicidal effect (chickweed [24]): 4 (Herbicidal rate of 70% or more and less than 90%)
R: persian speedwell, herbicidal effect (persian speedwell [25]): 4 (Herbicidal rate of 70% or more and less than 90%)
